Tested on: VIP-KO B6 recipients
Test: Short-term VIP administration in allo-BMT GvHD lethality model (FIG. 4)
Assay type: in vivo, mice
Conditions: VIP 10 μgram/day vs PBS from day 0 to day 10; lethally irradiated VIP-KO B6 recipients infused with 5M TCD BM plus 3×10^6 B10.BR T cells
From the text: Lethally irradiated WT and VIP-KO B6 recipients were infused with 5M TCD BM plus 3×10^6 B10.BR T cells.

vasoactive intestinal peptide [VIP] was tested, and the “acute GvHD mortality after allo-BMT” value was “rescued VIP-KO recipients from acute GvHD mortality”.

From patent publication US12685761B2, “VIP and VIP agonists, nanoparticles, and uses in inflammatory T-cell mediated disease” (Emory University, priority 2018, dated 2026)
